The subject of experiment [1] is Staph. aureus. Put plainly: MIC and MBC assays. Type of experiment: cell-based. As to conditions: Staphylococcus aureus, compound alone, no antibiotic; for MIC: overnight (18 hrs). The method, then:
(§1) […]. MIC was defined by the lowest concentration of the test compound that inhibits visible growth of pathogen of interest. The optical density of the pathogen of interest culture was measured by OD600.
(§2) […]. MBC was determined colony forming units (CFUs) enumeration by serially diluting and plating bacterial cultures on BHI plates.
(§3) . Thus, no antibiotic was used in Table 2.

The test system of experiment [2] is Strep. pyogenes. The experiment is described as follows: MIC and MBC assays. Type of experiment: cell-based. As to conditions: Streptococcus pyogenes, compound alone, no antibiotic; for MIC: overnight (18 hrs). The method, then: as §1, §2, §3
Experiment [3] concerns Staph. saphyticus. The experiment is described as follows: MIC and MBC assays. Type of experiment: cell-based. As to conditions: Staphylococcus, compound alone, no antibiotic; for MIC: overnight (18 hrs). The method, then: as §1, §2, §3
Experiment [4] has as its system MRSA. Put plainly: Minimum Inhibitory Concentration (MIC) and Minimum Bactericidal Concentration (MBC) assays. Type of experiment: cell-based, Methicillin-resistant Staphylococcus aureus. As to conditions: Staphylococcus aureus, compound alone, no antibiotic; for MIC: 18 h, overnight (18 hrs), read-out: MIC. How it is done:
(§4) MIC was defined by the lowest concentration of the test compound that inhibits visible growth of pathogen of interest. The optical density of the pathogen of interest culture was measured by OD600.
(§5) MBC was determined colony forming units (CFUs) enumeration by serially diluting and plating bacterial cultures on BHI plates.
(§6) Thus, no antibiotic was used in Table 2.

Experiment [5] has as its system C. diff. The experiment is described as follows: MIC and MBC assays. Type of experiment: cell-based, Clostridium difficile. As to conditions: Clostridioides difficile, compound alone, no antibiotic; for MIC: overnight (18 hrs). How it is done:
as §1, §2, §3

The test system of experiment [6] is Streptococcus. Put plainly: MIC and MBC assays. Type of experiment: cell-based. As to conditions: compound alone, no antibiotic. How it is done:
as §4, §5, §6

Experiment [7] has as its system E. faecalis. The experiment is described as follows: MIC and MBC assays. Type of experiment: cell-based. As to conditions: Enterococcus faecalis, compound alone, no antibiotic; for MIC: overnight (18 hrs). How it is done:
as §4, §5, §6

The subject of experiment [8] is E. faecalis OG1RF. Put plainly: Stand alone activity in vivo, mouse model of catheter-associated urinary tract infection (CAUTI). Further details: species or system Enterococcus faecalis. As to conditions: C57BL/6Ncr mice, 10 mg/kg intraperitoneally 24 hours post-infection, sacrificed 48 hours post-infection, compound alone. How it is done:
Mice used in this study were six-week-old female wild-type C57BL/6Ncr mice. Mice were anesthetized by inhalation of isoflurane and implanted with a 5-mm length of platinum-cured silicone catheter. Then, mice were infected immediately following catheter implantation with 50 μl of ˜2×10^7 CFU of E. faecalis OG1RF in PBS (1 mL) was introduced in the bladder lumen by transurethral inoculation. […] Mice were sacrificed at 48 hours post-infection by cervical dislocation after anaesthesia inhalation, and the bladders were aseptically harvested. Subsequently, the silicone implant was retrieved from the bladder. Catheters were placed in 1×PBS (1 mL), sonicated for 10 min, to detach E. faecalis and bladders were homogenized in 1×PBS (1 mL).
Mice used in this study were six-week-old female wild-type C57BL/6Ncr mice. Mice were anesthetized by inhalation of isoflurane and implanted with a 5-mm length of platinum-cured silicone catheter.
Mice were sacrificed at 48 hours post-infection by cervical dislocation after anaesthesia inhalation, and the bladders were aseptically harvested. Subsequently, the silicone implant was retrieved from the bladder. Catheters were placed in 1×PBS (1 mL), sonicated for 10 min, to detach E. faecalis and bladders were homogenized in 1×PBS (1 mL). For bacterial enumeration on catheters and bladder, samples were serially diluted and plated on BHI for CFU enumeration.

Molecules are shown by their SMILES. Values after ≈ are worked out from the molar mass of the structure shown.

The MBC is the lowest tested concentration that kills the bacteria rather than only halting them. Low readings indicate more potent killing, high ones less potent killing. What is called MIC is the lowest concentration found to suppress growth.

As to `Cc1cccc(-c2sc3c(C4CC4)c(Cc4cccc5ccccc45)cc(=O)n3c2C(=O)O)c1` [Example 30, 5-Cyclopropyl-4-[(1-naphthyl)methyl]-2-oxo-8-(m-tolyl)-7-thia-1-azabicyclo[4.3.0]nona-3,5,8-triene-9-carboxylic acid], the MBC in experiment [1] was 50 µM (≈ 23.3 µg/mL); in experiment [2] it was 12.5 µM (≈ 5.82 µg/mL); in experiment [3] it was 12.5 µM (≈ 5.82 µg/mL); in experiment [4] it was 50 µM (≈ 23.3 µg/mL); in experiment [5], 50 µM (≈ 23.3 µg/mL); in experiment [6] it was 19 µM (≈ 8.85 µg/mL). In experiment [7], this molecule registered an MBC of 100 µM (≈ 46.6 µg/mL). Also, the MIC in experiment [1] came to 50 µM (≈ 23.3 µg/mL); in experiment [2], 25 µM (≈ 11.6 µg/mL); in experiment [3], 100 µM (≈ 46.6 µg/mL); in experiment [4], 25 µM (≈ 11.6 µg/mL); in experiment [5] it was 50 µM (≈ 23.3 µg/mL); in experiment [7] it was 50 µM (≈ 23.3 µg/mL). In experiment [8], the “reduction of bacterial titers in the bladder” value (“reduction … in the bladder” below) is “about 1.5 log units”. In experiment [8], the “reduction of bacterial titers on the catheters” value (shortened to “reduction … on the catheters”) is given as “about 1 log units”.

Take `COc1c(Cc2cccc3ccccc23)cc(=O)n2c(C(=O)O)c(-c3ccc(OCCCC(C)C)c(C)c3)sc12` [Example 23, 8-[4-(Isohexyloxy)-3-methyl-phenyl]-5-methoxy-4-[(1-naphthyl)methyl]-2-oxo-7-thia-1-azabicyclo[4.3.0]nona-3,5,8-triene-9-carboxylic acid]: in experiment [4], the MIC came to 45 µM (≈ 25 µg/mL). This molecule had an MIC in experiment [7] of over 100 µM. In experiment [8], the “reduction … in the bladder” value is “about 1.5 log units” and the “reduction … on the catheters” value was “about 0.4 log units”.

On to `O=C(O)C1CSc2c(-c3cccc(C(F)(F)F)c3)c(Cc3c4ccccc4cc4ccccc34)cc(=O)n21` (stereo not shown) [Example 37, 6-[(9-Anthryl)methyl]-4-oxo-7-[m-(trifluoromethyl)phenyl]-1-thia-3a-aza-3-indancarboxylic acid], for which the MBC in experiment [1] came out at 50 µM (≈ 26.6 µg/mL); in experiment [2], 12.5 µM (≈ 6.64 µg/mL); in experiment [3], 25 µM (≈ 13.3 µg/mL); in experiment [4], 25 µM (≈ 13.3 µg/mL); in experiment [5], 50 µM (≈ 26.6 µg/mL); in experiment [7], 400 µM (≈ 213 µg/mL). The MIC is 50 µM (≈ 26.6 µg/mL) in experiment [1]; 12.5 µM (≈ 6.64 µg/mL) in experiment [2]; over 500 µM in experiment [3]; 25 µM (≈ 13.3 µg/mL) in experiment [4]; 50 µM (≈ 26.6 µg/mL) in experiment [5]; 100 µM (≈ 53.2 µg/mL) in experiment [7].

As to `COc1c(Cc2cccc3ccccc23)cc(=O)n2c(C(=O)O)c(-c3ccc(OCCCC(C)C)c(C)c3)sc12` [Example 50, 1H-imidazol-1-ium 8-methoxy-2-(3-methyl-4((4-methylpentyl)oxy)phenyl)-7-(naphtalen-1-ylmethyl)-5-oxo-thiazolo[3,2-a]pyridine-3-carboxylate], the “reduction … in the bladder” value in experiment [8] (10 mg/kg) was “about 0.5 log units”.

Regarding `CCCOc1ccc(-c2sc3c(OC)c(Cc4cccc5ccccc45)cc(=O)n3c2C(=O)O)cc1C` [Example 10, 5-Methoxy-4-[(1-naphthyl)methyl]-2-oxo-8-(4-propoxy-3-methyl-phenyl)-7-thia-1-azabicyclo[4.3.0]nona-3,5,8-triene-9-carboxylic acid], the MIC stood at 17 µM (≈ 8.73 µg/mL) in experiment [4] and 188 µM (≈ 96.6 µg/mL) in experiment [7]. For the same molecule, the MBC in experiment [4] amounted to 17 µM (≈ 8.73 µg/mL); in experiment [6], 5 µM (≈ 2.57 µg/mL); in experiment [7] it was 50 µM (≈ 25.7 µg/mL).

As to `CCCCCOc1ccc(-c2sc3c(C4CC4)c(Cc4cccc5ccccc45)cc(=O)n3c2C(=O)O)cc1` [Example 12, 5-Cyclopropyl-4-[(1-naphthyl)methyl]-2-oxo-8-[p-(pentyloxy)phenyl]-7-thia-1-azabicyclo[4.3.0]nona-3,5,8-triene-9-carboxylic acid], the MIC came out at 70 µM (≈ 37.6 µg/mL) in experiment [4] and 300 µM (≈ 161 µg/mL) in experiment [7]. In addition, the MBC in experiment [4] was determined as 25 µM (≈ 13.4 µg/mL); in experiment [6] it was 2 µM (≈ 1.08 µg/mL).

With `O=C(O)C1C(c2ccccc2)Sc2c(-c3ccc4c(c3)OCO4)c(COc3cccc4ccccc34)cc(=O)n21` (stereo not shown) [Example 39, 6-[(1-Naphthyloxy)methyl]-4-oxo-2-phenyl-7-(1,3-Dioxa-5-indanyl)-1-thia-3a-aza-3-indancarboxylic acid], the MBC was 200 µM (≈ 110 µg/mL) in experiment [1]; 25 µM (≈ 13.7 µg/mL) in experiment [2]; 25 µM (≈ 13.7 µg/mL) in experiment [3]; 50 µM (≈ 27.5 µg/mL) in experiment [4]; 100 µM (≈ 55 µg/mL) in experiment [5]; 900 µM (≈ 495 µg/mL) in experiment [7]. The MIC in experiment [1] is 50 µM (≈ 27.5 µg/mL); in experiment [2], 12.5 µM (≈ 6.87 µg/mL); in experiment [3], over 500 µM; in experiment [4], 50 µM (≈ 27.5 µg/mL); in experiment [5] it was 100 µM (≈ 55 µg/mL); in experiment [7], 400 µM (≈ 220 µg/mL).

Consider `CCCCOc1ccc(-c2sc3c(C4CC4)c(Cc4cccc5ccccc45)cc(=O)n3c2C(=O)O)cc1C` [Example 7, 8-(4-Butoxy-3-methyl-phenyl)-5-cyclopropyl-4-[(1-naphthyl)methyl]-2-oxo-7-thia-1-azabicyclo[4.3.0]nona-3,5,8-triene-9-carboxylic acid], for which the MIC in experiment [4] is 25 µM (≈ 13.4 µg/mL); in experiment [7] it was 95 µM (≈ 51.1 µg/mL). In addition, the MBC in experiment [4] was found to be 32 µM (≈ 17.2 µg/mL); in experiment [6] it was 7 µM (≈ 3.76 µg/mL); in experiment [7], 19 µM (≈ 10.2 µg/mL).

With `CCCCCOc1ccc(-c2sc3c(C4CC4)c(Cc4cccc5ccccc45)cc(=O)n3c2C(=O)O)cc1C` [Example 6, 5-Cyclopropyl-4-[(1-naphthyl)methyl]-2-oxo-8-[4-(pentyloxy)-3-methyl-phenyl]-7-thia-1-azabicyclo[4.3.0]nona-3,5,8-triene-9-carboxylic acid], the figures for the MIC in experiment [4] and in experiment [7] were 69 µM (≈ 38.1 µg/mL) and 200 µM (≈ 110 µg/mL), respectively. The MBC was determined as 37 µM (≈ 20.4 µg/mL) in experiment [4], 23 µM (≈ 12.7 µg/mL) in experiment [6] and 100 µM (≈ 55.2 µg/mL) in experiment [7].

Consider `O=C(O)c1c(Cc2ccccc2)sc2c(C3CC3)c(Cc3cccc4ccccc34)cc(=O)n12` [Example 28, 8-Benzyl-5-cyclopropyl-4-[(1-naphthyl)methyl]-2-oxo-7-thia-1-azabicyclo[4.3.0]nona-3,5,8-triene-9-carboxylic acid], for which the MBC is 50 µM (≈ 23.3 µg/mL) in experiment [1]; 25 µM (≈ 11.6 µg/mL) in experiment [2]; 25 µM (≈ 11.6 µg/mL) in experiment [3]; 50 µM (≈ 23.3 µg/mL) in experiment [4]; 50 µM (≈ 23.3 µg/mL) in experiment [5]; 100 µM (≈ 46.6 µg/mL) in experiment [7]. Also, the MIC is 25 µM (≈ 11.6 µg/mL) in experiment [1]; 12.5 µM (≈ 5.82 µg/mL) in experiment [2]; 100 µM (≈ 46.6 µg/mL) in experiment [3]; 25 µM (≈ 11.6 µg/mL) in experiment [4]; 50 µM (≈ 23.3 µg/mL) in experiment [5]; 25 µM (≈ 11.6 µg/mL) in experiment [7]. Also, the “reduction … in the bladder” value in experiment [8] is on record as “about 0.5 log units”. Moreover, the “reduction … on the catheters” value in experiment [8] is “about 0.4 log units”.

On to `CCCCCCOc1ccc(-c2sc3c(C4CC4)c(Cc4cccc5ccccc45)cc(=O)n3c2C(=O)O)cc1C` [Example 1, 5-Cyclopropyl-8-[4-(hexyloxy)-3-methyl-phenyl]-4-[(1-naphthyl)methyl]-2-oxo-7-thia-1-azabicyclo[4.3.0]nona-3,5,8-triene-9-carboxylic acid], for which the results for the MIC in experiment [4] and in experiment [7] were 20 µM (≈ 11.3 µg/mL) and 67 µM (≈ 37.9 µg/mL), respectively. Further, the MBC in experiment [4] turned out to be 25 µM (≈ 14.1 µg/mL); in experiment [6], 9 µM (≈ 5.09 µg/mL); in experiment [7], 25 µM (≈ 14.1 µg/mL).

Regarding `O=C(O)C1CSc2c(-c3cccc(C(F)(F)F)c3)c(Cc3cccc4ccccc34)cc(=O)n21` (stereo not shown) [Example 38, 6-[(1-Naphthyl)methyl]-4-oxo-7-[m-(trifluoromethyl)phenyl]-1-thia-3a-aza-3-indancarboxylic acid], the minimum bactericidal concentration (MBC) in experiment [1] was found to be 250 µM (≈ 120 µg/mL); in experiment [2], 50 µM (≈ 24.1 µg/mL); in experiment [3], 50 µM (≈ 24.1 µg/mL); in experiment [4], 250 µM (≈ 120 µg/mL); in experiment [5] it was 200 µM (≈ 96.3 µg/mL); in experiment [7], 250 µM (≈ 120 µg/mL). For the same molecule, the MIC in experiment [1] came to 200 µM (≈ 96.3 µg/mL); in experiment [2], 50 µM (≈ 24.1 µg/mL); in experiment [3] it was 250 µM (≈ 120 µg/mL); in experiment [4] it was 200 µM (≈ 96.3 µg/mL); in experiment [5], 200 µM (≈ 96.3 µg/mL); in experiment [7], 200 µM (≈ 96.3 µg/mL).
